Assay results reported in EPA's ToxValDB 9.5 (doi:10.2903/j.efsa.2006.61r).
≈ marks a conversion by molar mass, not a printed value.

How the values were obtained:
Oncorhynchus mykiss = conditions: acute; duration: 96 hours; mortality
Daphnia magna = conditions: chronic/long-term; duration: 21 days; reproduction
Rattus norvegicus = conditions: for LD50: acute, oral, mortality
Pontoscolex corethrurus = conditions: chronic/long-term
Bibionidae = conditions: chronic/long-term; duration: 28 days; seedling emergence
Tagia sp. = conditions: acute; duration: 14 days; mortality
Anas platyrhynchos = conditions: acute; oral; unspecified; mortality
Colinus virginianus = conditions: for LD50: acute, oral, mortality
Apis mellifera = conditions: acute, mortality
Trichogramma cacoeciae = conditions: not reported

With `Cc1cc(C)nc(Nc2ccccc2)n1` [Pyrimethanil] the LC50 (Oncorhynchus mykiss) was 10.6 µg/mL (≈ 53 µM), the NOEC (Daphnia magna) was 0.94 mg/L and the LD50 (Rattus norvegicus; F) was 5970 mg/kg. For the same compound, the LD50 (Rattus norvegicus; M) was 4150 mg/kg, the NOAEL (Rattus norvegicus; chronic, duration: 2 years, clinical chemistry) was 17 mg/kg-day and the NOAEL (Rattus norvegicus; reproduction developmental, M, body weight) was 18.4 mg/kg-day. For the same compound, the NOAEL (Rattus norvegicus; subchronic, duration: 90 days, organ weight) was 5.4 mg/kg-day, the NOEC (Pontoscolex corethrurus) was 4.12 mg/kg and the NOEC (Bibionidae) was 4 mg/L. For the same compound, the LC50 (Tagia sp.) was 626 mg/kg, the LD50 (Anas platyrhynchos) was over 2000 mg/kg and the LEL (Encarsia formosa; acute, duration: 6 days, mortality) was 1000 g/ha. For the same compound, the LEL (Encarsia formosa; not reported, reproduction) was 1000 g/ha, the LD50 (Colinus virginianus; diet) was over 874 mg/kg and the LD50 (Colinus virginianus) was over 2000 mg/kg. For the same compound, the NOAEL (Colinus virginianus; reproduction developmental) was 96 mg/kg-day, the LD50 (Apis mellifera; dermal) was over 100 µg/piece and the LD50 (Apis mellifera; duration: 48 hours, oral, unspecified) was over 100 µg/piece. It also gave an LEL (Trichogramma cacoeciae; mortality) of 1000 g/ha and an LEL (Trichogramma cacoeciae; reproduction) of 1000 g/ha.
